For data set [1], the target named is T1, TGFβ2 (Homo sapiens, UniProt P61812).
T1 sequence (P61812 303-414 limits assumed): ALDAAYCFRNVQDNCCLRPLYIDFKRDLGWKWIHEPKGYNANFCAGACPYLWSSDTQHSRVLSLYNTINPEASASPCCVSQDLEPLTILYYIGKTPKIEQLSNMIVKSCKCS
The experiment in a line: Nitrocellulose-filter partitioning binding of 32P-labeled aptamer to TGFβ-2 protein. The arrangement: A synthetic polynucleotide encoding full length human TGFβ2 mature protein was cloned into pRSET E. coli expression vector; made in house. The protocol: (§1) Dissociation constants for the binding of aptamers to purified human or rodent TGFβ-2 protein were determined by nitrocellulose-filter partitioning using ^32P-labeled RNA. In vitro transcribed RNA was treated with calf-intestinal alkaline phophatase (New England Biolabs) to remove 5′-triphosphates, then radio-labeled by incubation with γ-^32P-ATP and T4 polynucleotide kinase (New England Biolabs). Unincorporated label was removed by gel-filtration, and the RNAs were further purified by polyacrylamide gel electrophoresis (PAGE). Purified ^32P-labeled aptamer in water was refolded just prior to use by heating for 3 min at 95° C., followed by a 10 minute room-temperature incubation in binding buffer (50 mM Hepes, pH 7.4, 1 mM MgCl2, 1 mM CaCl2, 3 mM KCl, 140 mM NaCl, 0.1 mg/ml BSA, 0.01 mg/ml tRNA). The binding reactions (100 μL) were initiated by the addition of aptamer (≦0.1 nM) to excess TGFβ-2 protein (0.2-100 nM), followed by 10-30 minute equilibration at room temperature.
Nitrocellulose-filter partitioning was performed on Minifold® I, 96-well Dot-Blot manifolds (Schleicher & Schuell). Protein-bound aptamer and residual free aptamer were captured, respectively, on pre-wetted Protran nitrocellulose (Schleicher & Schuell) and Hybond-P polyvinylidene difluoride (Amersham Biosciences) filters by vacuum aspiration, and quantified by PhosphorImager (Amersham Biosciences). The proportion of protein-bound aptamer at each TGFβ-2 concentration was plotted as the ratio of counts-per-minute on the Protran nitrocellulose filter (CPMNC) to the sum of CPM on the Protran and Hybond-P filters (CPMtotal). Estimates of dissociation constants (KD) were obtained from a fit of the concentration of TGFβ-2 (i.e., [TGFβ-2])-dependent data to a standard binding isotherm: CPMNC/CPMtotal=Cmax/(1+KD/[TGFβ2]total), where Cmax equals the maximum observed value of CPMNC/CPMtotal at saturating [TGFβ-2], likely reflecting the proportion of properly-folded aptamer that is competent to recognize TGFβ-2.

In the next data set the target is T2, mouse (NTK) TGFβ2 (Homo sapiens, UniProt P61812, K396N/R362K/S361T).
T2 construct: A synthetic polynucleotide encoding full length human TGFβ2 mature protein was cloned into pRSET E. coli expression vector; made in house
T2 sequence (P61812 303-414 S361T/R362K/K396N): T1 sequence (P61812 303-414 limits assumed) with S59T, R60K, K94N
The experiment in a line: Nitrocellulose-filter binding to mouse TGFβ2. The note with it: FIG. 6C; read-out: binding affinity, mouse (NTK) TGFβ2. The protocol:
as §1
(§2) Nitrocellulose-filter partitioning was performed on Minifold® I, 96-well Dot-Blot manifolds (Schleicher & Schuell). Protein-bound aptamer and residual free aptamer were captured, respectively, on pre-wetted Protran nitrocellulose (Schleicher & Schuell) and Hybond-P polyvinylidene difluoride (Amersham Biosciences) filters by vacuum aspiration, and quantified by PhosphorImager (Amersham Biosciences). […]

Data set [2] concerns N-terminal His tagged human TGFβ2. The experiment in a line: Nitrocellulose-filter binding to His-tagged TGFβ2. The note with it: FIG. 6C; read-out: binding affinity, N-terminal His tagged human TGFβ2. The protocol:
A synthetic polynucleotide encoding full length human TGFβ2 mature protein was cloned into pRSET E. coli expression vector and transformed into BL21 (pLys) strain. The transformed cells were grown under conditions leading to TGFβ2 protein being expressed at high level and forming inclusion bodies. The inclusion bodies were purified and solubilized. The TGFβ2 was refolded and purified by S75 size exclusion chromatography (FIG. 4A). A His-tagged TGFβ2 was also generated by adding His6 plus 30 extra amino acids at the N terminus of TGFβ2. Mutations at positions 59 (S→T), 60 (R→K) and 94 (K→N), referred to herein as the S59T/R60K/K94N mutant, were introduced by site directed mutagenesis. Both the His-tagged and mutated TGFβ2 were expressed, refolded and purified using the same protocol as for wild type TGFβ2.
Dissociation constants for the binding of aptamers to purified human or rodent TGFβ-2 protein were determined by nitrocellulose-filter partitioning using ^32P-labeled RNA. […]
as §2

Data set [3] has as its target T3, human TGFβ2 (Homo sapiens, UniProt P61812).
T3 construct: two forms of mature TGFβ2 were generated, native and N-terminal his-tagged versions, in E. coli; made in house; host or cells: E. coli; added as soluble protein to MLEC
T3 sequence (P61812 303-414): T1 sequence (P61812 303-414 limits assumed)
The experiment in a line: MLEC proliferation assay (reversal of TGFβ2-mediated inhibition, BrdU). It is filed as cell-based. The note with it: for inhibition of the antiproliferative effects of TGFβ2: 50 pg/ml of TGFβ2, BrdU incorporation. The protocol: (§3) MLECs were plated at 2,000 cells per well and incubated at 37° C. for 4 hours. Aptamer and TGFβ2 were added at the indicated concentrations for 16 hours at 37° C. Cell proliferation was measured using BrdU incorporation. BrdU assay was performed as recommended by the manufacturer (Roche Diagnostics).
(§4) MLEC Assay. The mink lung epithelial cell proliferation assay is performed over two days. On day 1:1) media is aspirated off from Mink Lung Epithelial Cells (MLEC); 2) the MLEC are washed with 10 ml 1×PBS; 3) 3 ml Trypsin is added and Trypsinize for 3 min at 37° C.; 4) quench with 10 ml 0.5% FBS media; 5) spin at 1000 rpm for 3.30 min; 6) aspirate off supernatant; 7) resuspend pellet in 10 ml 0.5% FBS media; 8) Count 10 μl cell suspension; 9) adjust cell density to 80,000 cells/ml; 10) add 50 μl of cells/well to black bottomed 96-well plates (4000 cells/well); pipet up and down during plating process to avoid settling of cells and uneven plating; 11) incubate cells at 37° C. in 5% CO2 for 4 hrs to allow adherence of cells; 12) add 25 μl of aptamer (or media, or other test reagent, such as for example, an antibody), preferably the outer wells are not used for treated cells; 13) add 25 μl of TGFβ2 (typically 25 pg/ml); and 14) incubate cells at 37° C. in 5% CO2 overnight.
(§5) On day 2:1) mix 20 μl BrdU with 2 ml 0.5% FBS media; 2) add 10 μl of BrdU mixture/well; 3) incubate cells at 37° C. in 5% CO2 for 3 hrs; 4) remove media and blot plates dry on paper towels; 5) add 200 μl/well FixDenat solution and incubate for 30 min at room temperature (RT); 6) remove FixDenat solution and blot plates dry on paper towels; 7) add 100 μl /well anti-BrdU POD solution and incubate for 90 min at RT; 8) remove anti-BrdU POD solution and blot plates dry on paper towels; 9) wash plates 3× with […] washing solution with 5 min RT incubations and blot plates dry on paper towels; 10) add 100 μl /well substrate solution and incubate for 3 min at RT in dark; and 11) read plates using PSP Luciferace 1 program on TopCount (Packard Bioscience Co., Downers Grove, Ill.).

Data set [4] concerns human TGFβ2. Described as above. The data set is classed as cell-based. The note with it: FIG. 6B. The protocol: as §3, §4, §5
Data set [5] has as its system TGFβ2 in rabbit aqueous humor. The experiment in a line: Aqueous humor challenge assay (MLEC proliferation). The data set is classed as cell-based. As for the experimental part: MLEC Assay. The mink lung epithelial cell proliferation assay is performed over two days. […]
as §5
MLECs were plated at 2,000 cells per well and incubated at 37° C. for 4 hours. […] Cell proliferation was measured using BrdU incorporation. […]

A short description of data set [6]: Pharmacokinetics via subconjunctival administration. It is filed as in vivo, mice. As for the experimental part: A pharmacokinetic study was performed to determine the pharmacokinetics of ARC81, ARC117 and ARC119, TGFβ2 aptamers having the sequences of SEQ ID NOs:4, 9 and 11, respectively), via subconjunctival administration in mice. These aptamers were formulated at a concentration of 10 mg/ml. Samples were collected at 0, 0.5, 1, 2, 6, 12, 24, 48 and 96 hours post-administration. FIGS. 21A, 21B and 21C show the aqueous humor and/or plasma concentration of each aptamer (in nM) through 50 hours post dose via subconjunctival administration.

Data set [7] deals with retinal pigmented epithelial (RPE) cells. The experiment in a line: RPE cell migration with PDGF. The note with it: 100 ng/ml PDGF. It is filed as cell-based. The text has this:
The graphs presented in FIG. 15E and 15F show the increasing effect of PDGF concentration on RPE cell migration.

The target of data set [8] is T1, TGFβ2. The experiment in a line: Dot blot binding of doped reselection aptamers to TGFβ2. The arrangement: For bio-chemical characterization of these aptamers, two forms of mature TGFβ2 were generated, native and N-terminal his-tagged versions, in E. coli. The note with it: CW128_103. The protocol: TGFβ2 was serially diluted in DPBS containing 0.2 mg/ml BSA and 0.2 mg/ml tRNA. ^32P-labeled RNA (<20 pM) were incubated with TGFβ2 at room temperature for 30 min. Samples were pipetted with a multichannel pippetor onto a multiwell manifold holding layers of pre-wetted 0.45 micron nitrocellulose, hybond membrane, 3MM filter paper (the order is from top to bottom), aspirated, and washed 3× with DPBS (containing tRNA). All three filters were air dried, exposed to phosphorimager plate, analyzed by ImageQuant.

[9] abbreviates: 32P-labeled aptamer, nitrocellulose-filter partitioning, fit to Equation 1, read-out: Kd.
Where [10] appears, read: Aq Humour, subconjunctival, 1 mg/eye bilaterally.
Setting [11] is: PLASMA, subconjunctival, 1 mg/eye bilaterally.
The mark [12] stands for this setting: after subconjunctival administration.

Substitutions are numbered along the chain they refer to. Marks after values point to notes of the source that are not given here. {3T} = T cap written 3T / [3'T]; {NH2} = amine group; m = 2'-O-methyl; r = 2'-OH (RNA); f = 2'-fluoro

For the substance “5′-GGAGGfUfUAfUfUAfCAGAGfUfCfUGfUAfUAGfCfUGfUAfCfUfCfC-3T-3′ (GGAGGUUAUUACAGAGUCUGUAUAGCUGUACUCC; 2'-fluoro at CU, RNA at AG, 3' {3T}, backbone not given here) [ARC77]”, the Kd with TGFβ2 [1] (setting [9]) is 3.6 nM; in the data set with TGFβ2 [1] (FIG. 6C, read-out: binding affinity, human wild type (WT) TGFβ2), 2.5 ± 0.3 nM; with TGFβ2 [1] (read-out: KD), 1 nM; in the data set with mouse (NTK) TGFβ2 it was 80 ± 5 nM; in data set [2] it was ≥ 500 nM. For the same substance, the “inhibition of the antiproliferative effects of TGFβ2” value in the data set with human TGFβ2 [3] is on record as “inhibit the antiproliferative effects of 50 pg/ml of TGFβ2”. The concentration for half-maximal inhibition (IC50) (as a rule, the midpoint of a concentration-inhibition curve) with human TGFβ2 [3] (read-out: cell IC50) is 10 nM. For the same substance, the “potency against human versus rodent form of TGFβ2” value in the data set on human TGFβ2 [4] is “more potent against the human form of TGFβ2 than the rodent version”.
In the case of “5′-NH2-mGmGmGmGfUfUAfUfUmAfCmAmGmAmGfUfCfUGfUAfUAmGfCfUmGfUmAfCfCfC-3T-3′ (GGGGUUAUUACAGAGUCUGUAUAGCUGUACCC; sugars from the 5' end mmmmffrffmfmmmmfffrfrfrmffmfmfff, 5' {NH2}, 3' {3T}, backbone not given here) [ARC81]”, in data set [5] (1.5% rabbit aqueous humor), the “rescue of rabbit aqueous humor-mediated inhibition of MLEC proliferation” value is given as “rescued rabbit aqueous humor-mediated inhibition of MLEC proliferation in a dose dependent manner”. In addition, the “inhibition of antiproliferative effects of rabbit aqueous humor” value in data set [5] (low concentrations of rabbit aqueous humor (e.g., <10%), 1000 nM ARC81) is reported as “inhibited the antiproliferative effects of low concentrations of rabbit aqueous humor”. In addition, in the data set with TGFβ2 [1] (setting [9]), the Kd turned out to be 5.1 nM. Besides, in data set [6] (setting [10]), the “AUC (0-t)” value was determined as 36.0 nM·h, the Cmax turned out to be 5.19 nM, the MRT is listed as 6.03* h and the TLAST was 12 h. This substance returned a tmax in data set [6] (setting [10]) of 6 h. In addition, in data set [6] (setting [11]), the “AUC (0-t)” value came out at 29.8 nM·h, the Cmax is 6.44 nM, the MRT was 3.13 h and the TLAST was 12 h. For the same substance, in data set [6] (setting [11]), the Vd was 21079 mL, the t1/2 is listed as 2.42 h and the tmax is listed as 1 h. For the same substance, in [6] (setting [12]), the “detection in the aqueous humor” value is “detected in the aqueous humor” and the “time to enter systemic circulation” value is listed as “less than 0.5 hour”. Also, the “inhibition of the antiproliferative effects of TGFβ2” value with human TGFβ2 [3] was “inhibit the antiproliferative effects of 50 pg/ml of TGFβ2”.
For “5′-[PEG40K]-NH2-dCdAdGfCmGfUdAfCmG-PEG-dCdGTdAdCdCmGdATfUfCmA-PEG-TdGdAdAdGfCfUmG-3T-3′ [ARC128, reference compound]”, in [7], the “blocking of RPE cell migration” value was “has no activity”.
Turning to “GAfCAGAGfUAfUfUAfUAGAGfUAfUGfUAfUAGfCfUAfUAfCfUGfU[3T] (GACAGAGUAUUAUAGAGUAUGUAUAGCUAUACUGU; 2'-fluoro at CU, RNA at AG, 3' {3T}, backbone not given here) [ARC284, minimized S5R8-45]”, the Kd with TGFβ2 [8] was 0.11 nM.
